# Laboratory results reported in patent US10544143B2, “4-azaindole compounds” (BRISTOL-MYERS SQUIBB COMPANY, priority 2017, dated 2020).
# pIC50: −log10 of the molar value. Like-named read-outs stand apart in the source and are kept apart here.
# Experiments:
# human TLR9 = human TLR9 (Homo sapiens (Human), UniProt Q9NR96); assay: TLR9 inhibition reporter assay (HEK-Blue SEAP);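 also: SEAP driven by an IFN-β minimal promoter with NF-κB and AP-1 sites, read after 22 h, compounds dosed 0.05 nM–50 µM, inhibition scaled between agonist plus DMSO and reference-inhibitor wells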
# Chain of human TLR9 (Q9NR96 26-1032): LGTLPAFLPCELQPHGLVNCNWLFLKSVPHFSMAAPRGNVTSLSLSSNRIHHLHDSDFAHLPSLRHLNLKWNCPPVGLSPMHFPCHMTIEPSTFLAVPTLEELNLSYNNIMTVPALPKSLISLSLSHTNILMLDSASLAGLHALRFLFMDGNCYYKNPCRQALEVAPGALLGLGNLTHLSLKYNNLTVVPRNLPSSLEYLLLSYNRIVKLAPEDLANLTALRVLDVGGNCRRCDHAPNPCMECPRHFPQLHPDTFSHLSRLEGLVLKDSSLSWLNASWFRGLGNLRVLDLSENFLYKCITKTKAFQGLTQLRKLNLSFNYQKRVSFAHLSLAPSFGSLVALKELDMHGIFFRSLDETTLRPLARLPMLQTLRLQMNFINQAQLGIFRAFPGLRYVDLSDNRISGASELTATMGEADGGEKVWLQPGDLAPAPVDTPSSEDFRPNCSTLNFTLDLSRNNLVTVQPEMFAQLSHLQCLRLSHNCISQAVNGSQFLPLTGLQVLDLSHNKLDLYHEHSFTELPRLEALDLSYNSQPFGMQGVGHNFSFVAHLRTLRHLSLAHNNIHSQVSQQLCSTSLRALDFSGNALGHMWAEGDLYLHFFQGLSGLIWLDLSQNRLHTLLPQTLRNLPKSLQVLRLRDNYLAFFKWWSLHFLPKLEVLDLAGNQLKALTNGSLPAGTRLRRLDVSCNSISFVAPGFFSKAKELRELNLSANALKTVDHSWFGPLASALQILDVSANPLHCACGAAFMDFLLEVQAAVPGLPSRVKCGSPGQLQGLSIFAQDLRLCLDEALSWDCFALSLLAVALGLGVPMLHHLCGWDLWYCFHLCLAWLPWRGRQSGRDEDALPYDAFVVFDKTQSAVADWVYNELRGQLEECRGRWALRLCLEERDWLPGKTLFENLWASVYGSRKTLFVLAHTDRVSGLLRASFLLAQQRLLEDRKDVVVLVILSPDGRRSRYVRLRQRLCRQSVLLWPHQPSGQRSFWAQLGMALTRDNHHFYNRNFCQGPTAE
# human TLR8 = human TLR8 (Homo sapiens (Human), UniProt Q9NR97); assay: TLR8 inhibition reporter assay (HEK-Blue SEAP);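 also: SEAP driven by IFN-β minimal promoter carrying NF-κB and AP-1 sites, compounds dosed 0.05 nM to 50 µM for 22 h, inhibition scaled between agonist-plus-DMSO and reference-inhibitor wells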
# Chain of human TLR8 (Q9NR97 27-1041): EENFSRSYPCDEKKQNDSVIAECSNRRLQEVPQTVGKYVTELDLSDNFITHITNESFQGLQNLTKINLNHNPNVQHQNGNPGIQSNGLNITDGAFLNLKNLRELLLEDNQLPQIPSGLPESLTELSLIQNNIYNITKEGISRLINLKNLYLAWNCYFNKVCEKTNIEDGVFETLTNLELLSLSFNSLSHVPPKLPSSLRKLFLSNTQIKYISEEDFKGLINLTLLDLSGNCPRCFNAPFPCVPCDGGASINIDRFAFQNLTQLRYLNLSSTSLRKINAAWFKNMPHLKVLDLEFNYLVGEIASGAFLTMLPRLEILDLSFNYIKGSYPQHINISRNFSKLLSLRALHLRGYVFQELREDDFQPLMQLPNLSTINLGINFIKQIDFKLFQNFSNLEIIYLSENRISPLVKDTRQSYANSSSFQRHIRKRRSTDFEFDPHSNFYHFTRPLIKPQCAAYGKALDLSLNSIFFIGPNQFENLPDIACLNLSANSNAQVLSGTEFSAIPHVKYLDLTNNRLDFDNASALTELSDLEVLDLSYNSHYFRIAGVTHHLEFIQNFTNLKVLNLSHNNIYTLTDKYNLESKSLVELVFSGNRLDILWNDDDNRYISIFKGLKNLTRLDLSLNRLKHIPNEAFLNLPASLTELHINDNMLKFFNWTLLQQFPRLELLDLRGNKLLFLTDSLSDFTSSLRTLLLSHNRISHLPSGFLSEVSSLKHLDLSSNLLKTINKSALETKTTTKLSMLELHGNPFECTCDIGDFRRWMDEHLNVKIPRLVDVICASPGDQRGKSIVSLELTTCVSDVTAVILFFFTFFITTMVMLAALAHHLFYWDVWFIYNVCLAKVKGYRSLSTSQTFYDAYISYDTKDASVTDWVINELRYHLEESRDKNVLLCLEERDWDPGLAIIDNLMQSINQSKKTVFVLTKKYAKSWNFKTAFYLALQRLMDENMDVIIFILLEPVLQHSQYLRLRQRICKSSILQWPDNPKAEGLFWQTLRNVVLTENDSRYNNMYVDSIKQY
# human TLR7 = human TLR7 (Homo sapiens (Human), UniProt Q9NYK1); assay: TLR7 inhibition reporter assay (HEK-Blue SEAP); type: cell-based
# Chain of human TLR7 (Q9NYK1 27-1049): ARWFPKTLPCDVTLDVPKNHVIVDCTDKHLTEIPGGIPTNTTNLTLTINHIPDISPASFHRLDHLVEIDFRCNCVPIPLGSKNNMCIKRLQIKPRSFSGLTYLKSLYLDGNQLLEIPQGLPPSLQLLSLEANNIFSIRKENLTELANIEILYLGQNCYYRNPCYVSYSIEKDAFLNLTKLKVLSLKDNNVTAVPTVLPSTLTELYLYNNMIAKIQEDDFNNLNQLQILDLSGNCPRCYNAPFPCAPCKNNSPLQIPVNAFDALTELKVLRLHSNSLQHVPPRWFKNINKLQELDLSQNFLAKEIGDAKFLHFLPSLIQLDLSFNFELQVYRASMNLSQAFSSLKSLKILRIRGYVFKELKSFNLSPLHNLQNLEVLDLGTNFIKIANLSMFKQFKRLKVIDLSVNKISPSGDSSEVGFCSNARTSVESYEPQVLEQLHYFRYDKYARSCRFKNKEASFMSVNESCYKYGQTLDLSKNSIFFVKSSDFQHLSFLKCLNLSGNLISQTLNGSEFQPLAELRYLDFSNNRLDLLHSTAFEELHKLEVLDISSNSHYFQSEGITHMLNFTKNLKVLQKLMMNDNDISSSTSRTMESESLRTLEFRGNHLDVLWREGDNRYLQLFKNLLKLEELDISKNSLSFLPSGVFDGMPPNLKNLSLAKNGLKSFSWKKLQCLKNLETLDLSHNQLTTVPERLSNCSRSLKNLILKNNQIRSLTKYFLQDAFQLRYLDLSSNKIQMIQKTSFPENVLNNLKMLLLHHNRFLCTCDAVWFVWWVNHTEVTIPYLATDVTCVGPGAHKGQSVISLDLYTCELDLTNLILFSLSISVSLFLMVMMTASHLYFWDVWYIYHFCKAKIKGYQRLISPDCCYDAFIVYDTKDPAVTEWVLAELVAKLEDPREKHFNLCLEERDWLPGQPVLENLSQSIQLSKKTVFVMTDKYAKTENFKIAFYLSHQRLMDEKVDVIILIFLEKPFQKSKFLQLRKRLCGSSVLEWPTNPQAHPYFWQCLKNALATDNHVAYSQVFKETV
# [1] = read-out: TLR9 IC50, HEK-Blue cells overexpressing human TLR9, ODN2006 5 nM stimulation, SEAP reporter
# [2] = read-out: TLR8 IC50, HEK-Blue cells overexpressing human TLR8, R848 15.9 μM stimulation, SEAP reporter
# [3] = HEK-Blue cells overexpressing human TLR7, gardiquimod 7.5 μM stimulation, SEAP reporter
Compound,"pIC50 (human TLR9; TLR9 IC50, HEK-Blue human TLR9 cells, ODN2006 5 nM)","pIC50 (human TLR8; TLR8 IC50, HEK-Blue human TLR8 cells, R848 15.9 μM)","pIC50 (human TLR7; HEK-Blue human TLR7 cells, gardiquimod 7.5 μM)",pIC50 (human TLR9; [1]),pIC50 (human TLR8; [2]),pIC50 (human TLR7; [3])
"Cc1c(-c2[nH]c3ccc(N4CC(NC5CCOCC5)C4)nc3c2C(C)C)cn2ncnc2c1C [Example 1, 1-(2-(7,8-dimethyl-[1,2,4]triazolo[1,5-a]pyridin-6-yl)-3-isopropyl-1H-pyrrolo[3,2-b]pyridin-5-yl)-N-(tetrahydro-2H-pyran-4-yl)azetidin-3-amine]",–,–,–,5.11,8.42,7.70
"Cc1c(-c2[nH]c3ccc(N4CCNCC4)nc3c2C(C)C)cn2ncnc2c1C [Example 2, 6-(3-isopropyl-5-(piperazin-1-yl)-1H-pyrrolo[3,2-b]pyridin-2-yl)-7,8-dimethyl-[1,2,4]triazolo[1,5-a]pyridine]",–,–,–,5.14,9.57,8.77
"COc1ccc(-c2[nH]c3ccc(C4CCN(C5CCN(CC(C)C)CC5)CC4)nc3c2C)cc1OC [Example 5, 2-(3,4-dimethoxyphenyl)-5-(1′-isobutyl-[1,4′-bipiperidin]-4-yl)-3-methyl-1H-pyrrolo[3,2-b]pyridine]",–,–,–,7.43,5.39,6.33
"CCN(CCN(C)C)C(=O)c1nc2c(C(C)C)c(-c3cc(OC)c4ncnn4c3)[nH]c2cc1C [Example 6, N-(2-(dimethylamino)ethyl)-N-ethyl-3-isopropyl-2-(8-methoxy-[1,2,4]triazolo[1,5-a]pyridin-6-yl)-6-methyl-1H-pyrrolo[3,2-b]pyridine-5-carboxamide]",–,–,–,6.20,8.49,9.52
"CNC(=O)CNC1CCC(c2ccc3[nH]c(-c4cc(OC)c5ncnn5c4)c(C(C)C)c3n2)C1 (stereo not drawn) [Example 10, 2-((3-(3-isopropyl-2-(8-methoxy-[1,2,4]triazolo[1,5-a]pyridin-6-yl)-1H-pyrrolo[3,2-b]pyridin-5-yl)cyclopentyl)amino)-N-methylacetamide]",–,–,–,5.98,8.28,9.38
"Cc1cc(-c2[nH]c3cc(F)c(C4CCNCC4)nc3c2C(C)C)cn2ncnc12 [Example 11, 6-(6-fluoro-3-isopropyl-5-(piperidin-4-yl)-1H-pyrrolo[3,2-b]pyridin-2-yl)-8-methyl-[1,2,4]triazolo[1,5-a]pyridine]",–,–,–,5.17,7.68,8.77
Cc1c(-c2[nH]c3ccc(N4CC(N(C)C)C4)nc3c2C(C)C)cn2ncnc2c1C [Example 12],–,–,–,5.00,8.80,8.00
COc1cc(-c2[nH]c3ccc(N4CC(N(C)C)C4)nc3c2C(C)C)cn2ncnc12 [Example 13],–,–,–,5.30,8.72,8.49
Cc1c(-c2[nH]c3ccc(N4CC(N)C4)nc3c2C(C)C)cn2ncnc2c1C [Example 14],–,–,–,5.36,8.38,7.96
Cc1c(-c2[nH]c3ccc(N4CC(NC(=O)CN(C)C)C4)nc3c2C(C)C)cn2ncnc2c1C [Example 15],–,–,–,5.71,8.37,8.14
COc1cc(-c2[nH]c3ccc(N4CC(N)C4)nc3c2C(C)C)cn2ncnc12 [Example 16],–,–,–,6.20,8.68,9.22
COc1cc(-c2[nH]c3ccc(N4CC(NC(=O)CN(C)C)C4)nc3c2C(C)C)cn2ncnc12 [Example 17],–,–,–,5.96,8.11,8.43
COc1cc(-c2[nH]c3ccc(N4CC(NCC(=O)N(C)C)C4)nc3c2C(C)C)cn2ncnc12 [Example 18],–,–,–,5.83,7.85,7.85
Cc1c(-c2[nH]c3ccc(N4CC(N(C)C(=O)CN(C)C)C4)nc3c2C(C)C)cn2ncnc2c1C [Example 19],–,–,–,5.22,7.14,6.90
CNC1CN(c2ccc3[nH]c(-c4cn5ncnc5c(C)c4C)c(C(C)C)c3n2)C1 [Example 20],–,–,–,6.21,8.89,8.57
Cc1c(-c2[nH]c3ccc(N4CC(N(C)CC(=O)N(C)C)C4)nc3c2C(C)C)cn2ncnc2c1C [Example 21],–,–,–,< 4.30,7.34,7.04
Cc1c(-c2[nH]c3ccc(N4CC(NCC(=O)N(C)C)C4)nc3c2C(C)C)cn2ncnc2c1C [Example 22],–,–,–,4.67,7.92,7.25
CNC1CN(c2ccc3[nH]c(-c4cn5ncnc5c(C)c4C)c(C(C)C)c3n2)C1 [Example 23],–,–,–,< 4.30,< 5.51,< 5.51
Cc1c(-c2[nH]c3ccc(N4CC(N(C)C5CCOCC5)C4)nc3c2C(C)C)cn2ncnc2c1C [Example 24],–,–,–,4.85,8.57,7.40
Cc1c(-c2[nH]c3ccc(N4CC(N(C)C(=O)CN(C)C)C4)nc3c2C(C)C)cn2ncnc2c1C [Example 25],–,–,–,4.93,6.93,6.74
Cc1c(-c2[nH]c3ccc(N4CC(NCC(=O)N(C)C)C4)nc3c2C(C)C)cn2ncnc2c1C [Example 26],–,–,–,< 4.30,5.67,5.75
COc1cc(-c2[nH]c3ccc(N4CC(NCC(=O)N(C)C)C4)nc3c2C(C)C)cn2ncnc12 [Example 27],–,–,–,< 4.30,< 5.51,< 5.51
COc1cc(-c2[nH]c3ccc(N4CC(N(C)C(=O)CN(C)C)C4)nc3c2C(C)C)cn2ncnc12 [Example 28],–,–,–,< 4.30,5.83,6.58
COc1cc(-c2[nH]c3ccc(N4CC(NC5CCOCC5)C4)nc3c2C(C)C)cn2ncnc12 [Example 29],–,–,–,5.55,8.57,8.34
COc1cc(-c2[nH]c3ccc(N4CC(NCC5(C)COC5)C4)nc3c2C(C)C)cn2ncnc12 [Example 30],–,–,–,4.65,7.37,7.15
CNC1CN(c2ccc3[nH]c(-c4cc(OC)c5ncnn5c4)c(C(C)C)c3n2)C1 [Example 31],–,–,–,5.22,7.72,7.89
CC(C)c1c(-c2cn(C)c3ncccc23)[nH]c2ccc(N3CC(N)C3)nc12 [Example 32],–,–,–,5.73,8.16,8.14
CC(C)c1c(-c2cn(C)c3ncccc23)[nH]c2ccc(N3CC(NC4CCOCC4)C3)nc12 [Example 33],–,–,–,5.72,8.72,8.19
CC(C)c1c(-c2cn(C)c3ncccc23)[nH]c2ccc(N3CC(NCC(=O)N(C)C)C3)nc12 [Example 34],–,–,–,5.91,8.22,7.77
CC(C)c1c(-c2cn(C)c3ncccc23)[nH]c2ccc(N3CC(N)C3)nc12 [Example 35],–,–,–,4.86,6.55,6.23

# Now from value to molecule:
"pIC50 (human TLR9; TLR9 IC50, HEK-Blue human TLR9 cells, ODN2006 5 nM)","pIC50 (human TLR8; TLR8 IC50, HEK-Blue human TLR8 cells, R848 15.9 μM)","pIC50 (human TLR7; HEK-Blue human TLR7 cells, gardiquimod 7.5 μM)",pIC50 (human TLR9; [1]),pIC50 (human TLR8; [2]),pIC50 (human TLR7; [3]),Compound
4.75,9.03,9.19,–,–,–,"[2H]C([2H])([2H])N(C([2H])([2H])[2H])C([2H])([2H])C(=O)N1C([2H])([2H])C([2H])([2H])N(c2ccc3[nH]c(-c4cn5ncnc5c(C)c4C)c(C(C)C)c3n2)C([2H])([2H])C1([2H])[2H] (single isomer, unassigned) [Example 891]"
–,–,–,4.66,< 5.51,< 5.51,CC(C)c1c(-c2cn(C)c3ncccc23)[nH]c2ccc(N3CC(NC4CCOCC4)C3)nc12 [Example 36]
–,–,–,< 4.30,6.33,5.90,CC(C)c1c(-c2cn(C)c3ncccc23)[nH]c2ccc(N3CC(NCC(=O)N(C)C)C3)nc12 [Example 37]
–,–,–,4.35,8.28,7.68,Cc1c(-c2[nH]c3ccc(N4CC(O)C4)nc3c2C(C)C)cn2ncnc2c1C [Example 38]
–,–,–,5.10,8.77,7.62,Cc1c(-c2[nH]c3ccc(N4CC(N5CCC(O)CC5)C4)nc3c2C(C)C)cn2ncnc2c1C [Example 40]
–,–,–,< 4.30,6.75,6.58,Cc1c(-c2[nH]c3ccc(N4CC(N5CCS(=O)(=O)CC5)C4)nc3c2C(C)C)cn2ncnc2c1C [Example 41]
–,–,–,< 4.30,7.24,6.75,COC(=O)N1CCN(C2CN(c3ccc4[nH]c(-c5cn6ncnc6c(C)c5C)c(C(C)C)c4n3)C2)CC1 [Example 42]
–,–,–,6.25,8.11,8.70,Cc1c(-c2[nH]c3ccc(N4CC5(CCNCC5)C4)nc3c2C(C)C)cn2ncnc2c1C [Example 43]
–,–,–,5.47,7.82,7.92,Cc1c(-c2[nH]c3ccc(N4CC5(CCN(CC(=O)N(C)C)CC5)C4)nc3c2C(C)C)cn2ncnc2c1C [Example 44]
–,–,–,5.14,7.70,7.66,Cc1c(-c2[nH]c3ccc(N4CC5(CCN(CCS(C)(=O)=O)CC5)C4)nc3c2C(C)C)cn2ncnc2c1C [Example 45]
–,–,–,5.77,8.31,8.37,Cc1c(-c2[nH]c3ccc(N4CC5(CCN(C(C)C)CC5)C4)nc3c2C(C)C)cn2ncnc2c1C [Example 46]
–,–,–,4.50,8.03,8.13,Cc1c(-c2[nH]c3ccc(N4CCC(N(Cc5c[nH]nn5)Cc5c[nH]nn5)CC4)nc3c2C(C)C)cn2ncnc2c1C [Example 48]
–,–,–,5.57,9.21,9.00,Cc1c(-c2[nH]c3ccc(N4CCC(NC5CCOCC5)CC4)nc3c2C(C)C)cn2ncnc2c1C [Example 49]
–,–,–,5.55,9.41,9.31,Cc1c(-c2[nH]c3ccc(N4CCC(N)CC4)nc3c2C(C)C)cn2ncnc2c1C [Example 50]
–,–,–,4.79,8.15,8.29,CC(C)c1c(-c2cn(C)c3ncccc23)[nH]c2ccc(N3CCC(N(CC#N)CC#N)CC3)nc12 [Example 51]
